Experimental data from US6620961B1, “Biarylalkylenecarbamic acid derivatives and bacteriocides for agricultural and horticultural use” (Kumiai Chemical Industry Co., Ltd., priority 1997, dated 2003).

system: Pseudoperonospora cubensis; assay: Test for Preventive Effect on Cucumber Downy Mildew; format: in vivo; set-up: key: A: No diseased area; B: Diseased area of less than 25%; C: Diseased area of at least 25% but less than 50%; Diseased area of at least 50%; conditions: cucumber seedlings, wettable powder at 500 ppm active ingredient, 7 days after inoculation
Experimental: Test for Preventive Effect on Cucumber Downy Mildew 9 cucumber seeds (variety: Sagami-hanpaku) were sown in each 9 cmx9 cm polyvinyl chloride pot and grown in a greenhouse for 7 days. […] Then, the seedlings were inoculated with Pseudoperonospora cubensis zoosporangia in suspension by spraying and immediately placed in a moist chamber at 22° C. for 24 hours. Thereafter, the seedlings were placed in a greenhouse. 7 days after the inoculation, the total diseased area in each pot was observed and evaluated on the basis of the standards shown in Table 59. [table]

Compound	Evaluation (total diseased area in each pot)
COC(=O)NCc1cccc(-c2cccc(C)c2)c1 [1-11]	A
COC(=O)NCc1cccc(-c2ccc(C)cc2)c1 [1-12]	B (Diseased area of less than 25%)
COC(=O)NCc1cc(-c2cccc(C)c2)ccc1F [2-109]	A
COC(=O)NCc1cc(-c2ccc(C)cc2)ccc1F [2-110]	A
CCc1cccc(-c2ccc(F)c(CNC(=O)OC)c2)c1 [2-111]	A
COC(=O)NCc1cc(-c2cccc(C(C)C)c2)ccc1F [2-113]	B (Diseased area of less than 25%)
COC(=O)NCc1cc(-c2cccc(Cl)c2)ccc1OC [2-331]	A
COC(=O)NCc1cc(-c2cccc(C)c2)ccc1OC [2-333]	A
COC(=O)NCc1cc(-c2ccc(C)cc2)ccc1OC [2-334]	B (Diseased area of less than 25%)
COC(=O)NCc1cc(-c2cccc(C(F)(F)F)c2)ccc1OC [2-343]	A
COC(=O)NCc1cc(-c2ccc(C)c(C)c2)ccc1OC [2-346]	B (Diseased area of less than 25%)
COC(=O)NCc1cc(-c2cccc(C(C)=O)c2)ccc1Cl [2-450]	A

system: Erysiphe graminis; assay: Test for Preventive Effect on Wheat Powdery Mildew; format: in vivo; set-up: key: A: No diseased area; B: Diseased area of less than 25%; C: Diseased area of at least 25% but less than 50%; Diseased area of at least 50%; conditions: wheat seedlings (Norin-61-go), 500 ppm active ingredient, 10 ml per pot, 10 days after inoculation
Experimental: [table] Test for Preventive Effect on Wheat Powdery Mildew 9 wheat seeds (variety: […] Then, the seedlings were inoculated with […] graminis spores in suspension and placed in a greenhouse at 25 to 30° C. 10 days after the inoculation, the total diseases area of the first leaves in each pot was observed and evaluated on the basis of the standards shown in Table 59. The results are shown in Tables 67 to 71.

Compound	Evaluation (total diseased area of the first leaves in each pot)
COC(=O)NC(C)c1cccc(-c2ccc(Cl)cc2)c1 (racemic) [3-5]	B (Diseased area of less than 25%)
COC(=O)NC(C)c1cc(-c2ccc(F)cc2)ccc1F (racemic) [3-28]	B (Diseased area of less than 25%)
COC(=O)NC(C)c1cc(-c2ccc(Cl)cc2)ccc1F (racemic) [3-30]	B (Diseased area of less than 25%)
COC(=O)NCc1cccc(-c2ccc(Cl)cc2)c1 [1-4]	B (Diseased area of less than 25%)
COC(=O)NCc1cccc(-c2cccc(C)c2)c1 [1-11]	A
COC(=O)NCc1cccc(-c2ccc(C)cc2)c1 [1-12]	A
COC(=O)NCc1cccc(-c2ccc(C(F)(F)F)cc2)c1 [1-35]	A
COC(=O)NCc1cccc(-c2ccc(OC)cc2)c1 [1-42]	B (Diseased area of less than 25%)
COC(=O)NCc1cc(-c2cccc(C)c2)ccc1F [2-109]	A
COC(=O)NCc1cc(-c2ccc(C)cc2)ccc1F [2-110]	B (Diseased area of less than 25%)
CCc1cccc(-c2ccc(F)c(CNC(=O)OC)c2)c1 [2-111]	B (Diseased area of less than 25%)
COC(=O)NCc1cc(-c2cccc(C(C)C)c2)ccc1F [2-113]	A
COC(=O)NCc1cc(-c2cccc(Cl)c2)ccc1OC [2-331]	B (Diseased area of less than 25%)
COC(=O)NCc1cc(-c2ccc(Cl)cc2)ccc1OC [2-332]	B (Diseased area of less than 25%)
COC(=O)NCc1cc(-c2cccc(C)c2)ccc1OC [2-333]	B (Diseased area of less than 25%)
COC(=O)NCc1cc(-c2ccc(C)cc2)ccc1OC [2-334]	B (Diseased area of less than 25%)
COC(=O)NCc1cc(-c2cccc(C(F)(F)F)c2)ccc1OC [2-343]	B (Diseased area of less than 25%)
COC(=O)NCc1cc(-c2ccc(C)c(C)c2)ccc1OC [2-346]	A
COC(=O)NCc1cc(-c2cccc(O)c2)ccc1Cl [2-448]	A
COC(=O)NCc1cc(-c2cccc(C(C)=O)c2)ccc1Cl [2-450]	A
COC(=O)NCc1cc(-c2ccc(Br)cc2)ccc1Cl [2-453]	A
COC(=O)NCc1cc(-c2ccc(OC)c(OC)c2)ccc1Cl [2-455]	B (Diseased area of less than 25%)
COC(=O)NCc1cc(-c2ccc(C)cc2)ccc1I [2-551]	B (Diseased area of less than 25%)

system: Botrytis cinerea; assay: Test for Preventive Effect on Cucumber Gray Mold; format: in vivo; set-up: key: A: No diseased area; B: Diseased area of less than 25%; C: Diseased area of at least 25% but less than 50%; Diseased area of at least 50%; conditions: cotyledonary cucumber seedlings (Sagami-hanziro), 500 ppm active ingredient, 10 ml per pot, 3 days after inoculation
Experimental: [table] Test for Preventive Effect on Cucumber Gray Mold 9 cucumber seeds (variety: Sagami-hanziro) were sown in each 9 cm−9 cm polyvinyl chloride pot and grown in a greenhouse for 7 days. […] Then, the seedlings were inoculated with milled Botrytis cinerea hyphae in solution by spraying and immediately placed in a moist chamber at 22° C. 3 days after the inoculation, the total diseased area in each pot was observed and evaluated on the basis of the standards shown in Table 59.

Compound	Evaluation (total diseased area in each pot)
COC(=O)NC(C)c1cccc(-c2ccc(Cl)cc2)c1 (racemic) [3-5]	B (Diseased area of less than 25%)
COC(=O)NC(C)c1cc(-c2ccc(F)cc2)ccc1F (racemic) [3-28]	B (Diseased area of less than 25%)
COC(=O)NC(C)c1cc(-c2ccc(Cl)cc2)ccc1F (racemic) [3-30]	B (Diseased area of less than 25%)
COC(=O)NCc1cccc(-c2ccc(Cl)cc2)c1 [1-4]	A
COC(=O)NCc1cccc(-c2cccc(C)c2)c1 [1-11]	B (Diseased area of less than 25%)
COC(=O)NCc1cccc(-c2ccc(C)cc2)c1 [1-12]	A
COC(=O)NCc1cccc(-c2ccc(C(F)(F)F)cc2)c1 [1-35]	B (Diseased area of less than 25%)
COC(=O)NCc1cccc(-c2ccc(OC)cc2)c1 [1-42]	B (Diseased area of less than 25%)
COC(=O)NCc1ccc(OC)c(-c2ccccc2)c1 [2-65]	B (Diseased area of less than 25%)
CCc1cccc(-c2ccc(F)c(CNC(=O)OC)c2)c1 [2-111]	B (Diseased area of less than 25%)
COC(=O)NCc1cc(-c2cccc(Cl)c2)ccc1OC [2-331]	A
COC(=O)NCc1cc(-c2ccc(Cl)cc2)ccc1OC [2-332]	B (Diseased area of less than 25%)
COC(=O)NCc1cc(-c2ccc(C)cc2)ccc1OC [2-334]	A
COC(=O)NCc1cc(-c2cccc(C(F)(F)F)c2)ccc1OC [2-343]	B (Diseased area of less than 25%)
COC(=O)NCc1cc(-c2ccc(C)c(C)c2)ccc1OC [2-346]	B (Diseased area of less than 25%)
COC(=O)NCc1cc(-c2cccc(O)c2)ccc1Cl [2-448]	A
COC(=O)NCc1cc(-c2cccc(C(C)=O)c2)ccc1Cl [2-450]	A
COC(=O)NCc1cc(-c2ccc(Br)cc2)ccc1Cl [2-453]	A
COC(=O)NCc1cc(-c2ccc(OC)c(OC)c2)ccc1Cl [2-455]	B (Diseased area of less than 25%)
COC(=O)NCc1cc(-c2ccc(C)cc2)ccc1I [2-551]	B (Diseased area of less than 25%)

system: Venturia inaequalis; assay: Test for Preventive Effect on Apple Scab; format: in vivo; set-up: key: A: No diseased area; B: Diseased area of less than 25%; C: Diseased area of at least 25% but less than 50%; Diseased area of at least 50%; conditions: apple seedlings (Kogyoku), 500 ppm active ingredient, 20 ml per pot, 14 days after inoculation
Experimental: [table] Test for Preventive Effect on Apple Scab 5 apple seeds (variety: Kogyoku) were sown in each 9 cm×9 cm polyvinyl chloride pot and grown in a greenhouse for 20 days. […] Then, the seedlings were inoculated with Venturia inaequalis spores in suspension by spraying and immediately placed in a moist chamber at 22° C. for 48 hours. Thereafter, the seedlings were placed in a greenhouse for development of the disease. 14 days after the inoculation, the diseased areas of the upper two of the inoculated leaves were observed and evaluated on the basis of the standards shown in Table 59.

Compound	Evaluation (diseased area of the upper two inoculated leaves)
COC(=O)NC(C)c1cccc(-c2ccc(Cl)cc2)c1 (racemic) [3-5]	A
COC(=O)NC(C)c1cc(-c2ccc(F)cc2)ccc1F (racemic) [3-28]	A
COC(=O)NC(C)c1cc(-c2ccc(Cl)cc2)ccc1F (racemic) [3-30]	B (Diseased area of less than 25%)
COC(=O)NCc1cc(-c2cccc(Cl)c2)ccc1OC [2-331]	A
COC(=O)NCc1cc(-c2ccc(Cl)cc2)ccc1OC [2-332]	A
COC(=O)NCc1cc(-c2cccc(C)c2)ccc1OC [2-333]	A
COC(=O)NCc1cc(-c2ccc(C)cc2)ccc1OC [2-334]	A
COC(=O)NCc1cc(-c2cccc(C(F)(F)F)c2)ccc1OC [2-343]	A
COC(=O)NCc1cc(-c2ccc(C)c(C)c2)ccc1OC [2-346]	A
COC(=O)NCc1cc(-c2cccc(O)c2)ccc1Cl [2-448]	A
COC(=O)NCc1cc(-c2cccc(C(C)=O)c2)ccc1Cl [2-450]	A
COC(=O)NCc1cc(-c2ccc(Br)cc2)ccc1Cl [2-453]	A
COC(=O)NCc1cc(-c2ccc(OC)c(OC)c2)ccc1Cl [2-455]	A
COC(=O)NCc1cc(-c2ccc(C)cc2)ccc1I [2-551]	A

same assay, conditions: apple seedlings, wettable powder at 500 ppm active ingredient, preventive, 14 days after inoculation

Compound	Evaluation (diseased areas of the upper two of the inoculated leaves)
COC(=O)NCc1cccc(-c2ccc(Cl)cc2)c1 [1-4]	A
COC(=O)NCc1cccc(-c2cccc(C)c2)c1 [1-11]	A
COC(=O)NCc1cccc(-c2ccc(C)cc2)c1 [1-12]	A
COC(=O)NCc1cccc(-c2ccc(C(F)(F)F)cc2)c1 [1-35]	A
COC(=O)NCc1cccc(-c2ccc(OC)cc2)c1 [1-42]	A
COC(=O)NCc1ccc(OC)c(-c2ccccc2)c1 [2-65]	B (Diseased area of less than 25%)
COC(=O)NCc1cc(-c2cccc(C)c2)ccc1F [2-109]	A
COC(=O)NCc1cc(-c2ccc(C)cc2)ccc1F [2-110]	A
CCc1cccc(-c2ccc(F)c(CNC(=O)OC)c2)c1 [2-111]	A
COC(=O)NCc1cc(-c2cccc(C(C)C)c2)ccc1F [2-113]	A
